According to US20050090532A1, “Medicinal uses of dihydropyrazoles” (The Procter & Gamble Company, priority 2001, published 2005):

The molecules below were run on VEGF (assay: VEGF-ELISA assay, VEGF secretion from HL-1 cardiomyocyte cell line). Conditions: VEGF production; HL-1 cells, 18 hr, 10 concentrations 200 nM to 100 μM; read-out: EC50 (concentration of compound that induces the production of an amount of VEGF equal to half the maximum amount of VEGF induced by the compound).
Assay type: cell-based, murine
Experimental: Any compound of the present invention can be screened by a VEGF-ELISA assay. VEGF secretion is assayed in the HL-1 cardiomyocyte cell line as described in Claycomb. W. C., “HL-1 cells: a cardiac muscle cell line that contracts and retains phenotypic characteristics of the adult cardiomyocyte”, Proc. Natl. Acad. Sci U.S.A., Vol. 95, pp. 2979-84 (1998). For experiments, HL-1 cells are plated in 96-well plates at a density of 2×10^4 cells per well in growth medium: EXCEL 320 media (JRH Biosciences, Lenexia, Kans.) plus 10% fetal bovine serum (BioWhitaker), 100 nM retinoic acid (Sigma, St. Louis, Mo.), 10 μM norepinephrine (Sigma), 10 μg/ml insulin (Life Technologies, Grand Island, N.Y.), 1× non-essential amino acid supplement (Life Technologies), 50 μg/ml endothelial cell growth supplement (Upstate Biotechnology, Lake Placid, N.Y.), 100 units/ml penicillin, 100 units/ml streptomycin (Life Technologies). After 24 hrs, the media is replaced with a low-growth media (HL-1 media with 2% fetal bovine serum and without endothelial cell growth supplement) containing test compounds with 0.5% dimethyl sulfoxide (DMSO). After 18 hrs, conditioned media from the treated cells was assayed for VEGF content with a Murine VEGF-ELISA kit (R&D Systems, Minneapolis, Minn.). The amount of VEGF secreted into the media over an 18 hr period is normalized to positive control wells which are treated with a maximally effective concentration (1 mM) of deferoxamine mesylate (Sigma, St. Louis) and are reported as “percent activity,” where the VEGF in unstimulated wells is defined as 0% and the VEGF in wells treated with 1 mM deferoxamine is defined as 100%. Potency is determined by stimulating cells with 10 concentrations of test compounds (200 nM to 100 μM) and fitting the data to a variable slope sigmoidal dose-response curve using GraphPad Prism version 3.00 for Windows 95 (GraphPad Software, San Diego, Calif.). Determinations for each test compound are performed in three separate experiments and the means ± standard deviation of the […] and maximum response are evaluated. Compounds for pharmaceutical use are selected based upon the greatest percent activity.

SMILES	EC50
Oc1ccccc1C1=NN(c2ccccn2)C(c2ccccc2)C1 (centres unmarked) [Example 3, 2-(5-Phenyl-1-pyridin-2-yl-4,5-dihydro-1H-pyrazol-3-yl)-phenol]	1.7 µM
Oc1ccccc1C1=NN(c2ccccn2)C(c2ccccc2O)C1 (centres unmarked) [Example 9, 2-[5(2-hydroxy-phenyl)-1-pyridin-2-yl-4,5-dihydro-1H-pyrazol-3-yl]-phenol]	5.4 µM
Brc1ccc(N2N=C(c3ccccn3)CC2c2ccccc2)cc1 (centres unmarked) [Example 15, 2-[1-(4-Bromo-phenyl)-5-phenyl-4,5-dihydro-1H-pyrazol-3-yl]-pyridine]	6.3 µM
N#CCCN1N=C(c2ccccc2O)CC1c1ccccn1 (centres unmarked) [Example 13, 3-[3-(2-Hydroxy-phenyl)-5-pyridin-2-yl-4,5-dihydro-pyrazol-1-yl]-propionitrile]	18 µM
CN1N=C(c2ccc3ccccc3c2)CC1c1ccc(C(F)(F)F)cc1 (centres unmarked) [Example 20, 1-Methyl-3-naphthalen-2-yl-5-(4-trifluoromethyl-phenyl)-4,5-dihydro-1H-pyrazole]	13 µM
CN1N=C(c2ccccc2O)CC1c1ccccn1 (centres unmarked) [Example 10, 2-(1-Methyl-5-pyridin-2-yl-4,5-dihydro-1H-pyrazol-3-yl)-phenol]	92 µM
Oc1ccccc1C1=NN(c2nc3ccccc3s2)C(c2ccccc2)C1 (centres unmarked) [Example 4, 2-(1-Benzothiazol-2-yl-5-phenyl-4,5-dihydro-1H-pyrazol-3-yl)-phenol]	27 µM
CN1N=C(c2ccccc2O)CC1c1nccs1 (centres unmarked) [Example 11, 2-(1-Methyl-5-thiazol-2-yl-4,5-dihydro-1H-pyrazol-3-yl)-phenol]	12 µM
Clc1cccc(C2CC(c3ccccn3)=NN2c2ccccc2)c1 (centres unmarked) [Example 16, 2-[5-(3-Chloro-phenyl)-1-phenyl-4,5-dihydro-1H-pyrazol-3-yl]-pyridine]	1.7 µM
Oc1ccccc1C1=NN(c2ccccn2)C(c2ccccn2)C1 (centres unmarked) [Example 8, 2-(1,5-Di-pyridin-2-yl-4,5-dihydro-1H-pyrazol-3-yl)-phenol]	5.4 µM
COc1ccc(C2CC(c3ccc4ccccc4c3)=NN2C)cc1 (centres unmarked) [Example 18, 5-(4-Methoxy-phenyl)-1-methyl-3-naphthalen-2-yl-4,5-dihydro-1H-pyrazole]	11 µM
c1ccc(C2CC(c3ccccn3)=NN2c2ccccc2)cc1 (centres unmarked) [Example 1, 2-(1,5-Diphenyl-4,5-dihydro-1H-pyrazol-3-yl)-pyridine]	23 µM
CN(C)c1ccc(C2CC(c3ccccc3)=NN2c2ccccc2)cc1 (centres unmarked) [Example 17, [4-(2,5-Diphenyl-3,4-dihydro-2H-pyrazol-3-yl)-phenyl]-dimethyl-amine]	6 µM
CN1N=C(c2ccc3ccccc3c2)CC1c1ccc(F)cc1 (centres unmarked) [Example 19, 5-(4-Fluoro-phenyl)-1-methyl-3-naphthalen-2-yl-4,5-dihydro-1H-pyrazole]	3.6 µM
COc1ccccc1C1CC(c2ccccc2O)=NN1c1ccccn1 (centres unmarked) [Example 7, 2-[5-(2-Methoxy-phenyl)-1-pyridin-2-yl-4,5-dihydro-1H-pyrazol-3-yl]-phenol]	5.5 µM
COc1ccc(C2CC(c3ccccc3O)=NN2c2ccccn2)cc1 (centres unmarked) [Example 6, 2-[5-(4-Methoxy-phenyl)-1-pyridin-2-yl-4,5-dihydro-1H-pyrazol-3-yl]-phenol]	5.68 µM
Cc1ccc(N2N=C(c3ccccn3)CC2c2ccccc2)cc1 (centres unmarked) [Example 14, 2-(5-Phenyl-1-p-tolyl-4,5-dihydro-1H-pyrazol-3-yl)-pyridine]	2 µM
c1ccc(C2=NN(c3ccccn3)C(c3ccccc3)C2)cc1 (centres unmarked) [Example 2, 2-(3,5-Diphenyl-4,5-dihydro-pyrazol-1-yl)-pyridine]	6 µM
Cc1ccc(C2CC(c3ccccc3O)=NN2c2ccccn2)cc1 (centres unmarked) [Example 5, 2-(1-Pyridin-2-yl-5-p-tolyl-4,5-dihydro-1H-pyrazol-3-yl)-phenol]	5.7 µM
OCCN1N=C(c2ccccc2O)CC1c1ccccn1 (centres unmarked) [Example 12, 2-[1-(2-Hydroxy-ethyl)-5-pyridin-2-yl-4,5-dihydro-1H-pyrazol-3-yl]-phenol]	65 µM
